Target: T1, CYP2C8 (Homo sapiens, UniProt P10632)
T1 sequence (P10632 1-490): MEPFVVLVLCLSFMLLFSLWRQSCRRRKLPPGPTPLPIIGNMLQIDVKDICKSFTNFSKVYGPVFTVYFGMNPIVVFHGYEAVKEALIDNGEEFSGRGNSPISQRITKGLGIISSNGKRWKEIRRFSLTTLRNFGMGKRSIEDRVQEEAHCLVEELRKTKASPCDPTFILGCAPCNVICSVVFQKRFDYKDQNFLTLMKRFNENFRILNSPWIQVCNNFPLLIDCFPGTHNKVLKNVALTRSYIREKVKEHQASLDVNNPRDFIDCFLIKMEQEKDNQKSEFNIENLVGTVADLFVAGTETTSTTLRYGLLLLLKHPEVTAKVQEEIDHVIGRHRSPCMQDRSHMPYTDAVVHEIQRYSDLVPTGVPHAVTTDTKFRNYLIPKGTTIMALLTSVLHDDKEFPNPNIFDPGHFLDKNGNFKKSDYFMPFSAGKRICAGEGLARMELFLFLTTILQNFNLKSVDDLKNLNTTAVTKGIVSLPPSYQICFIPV
Experiment: CYP2C8-catalyzed amodiaquine N-deethylation in human liver microsomes (IC50 and time-dependent inhibition)
Type: in vitro ADME
Set-up: from tissue; host or cells: ultrapooled human liver microsomes
Procedure: The inhibitory potential (IC50 values) of EAM-2201 on CYP1A2, CYP2A6, CYP2C8, CYP2C9, CYP2C19, CYP2D6 and CYP3A4 were evaluated using ultrapooled human liver microsomes and a cocktail of seven CYP substrates followed by LC-tandem mass spectrometry (LC-MS/MS) as previously described. Each incubation mixture was prepared in a total volume of 100 µL as follows: pooled human liver microsomes (5.2 pmol CYP), 1.0 mM NADPH, 10 mM magnesium chloride, 50 mM potassium phosphate buffer (pH 7.4), various concentrations of EAM-2201 in DMSO (final concentrations of 0.1–50 µM, 0.5% DMSO) and a cocktail of seven CYP probe substrates in 50% acetonitrile (0.5% acetonitrile), including 50 µM phenacetin, 2.5 µM coumarin, 2.0 µM amodiaquine, 10 µM diclofenac, 100 µM [S]-mephenytoin, 5 µM bufuralol and 2.5 µM midazolam in 50% acetonitrile. After a 3-min preincubation at 37 °C, the reactions were initiated by adding NADPH and incubation proceeded for 15 min at 37 °C in a shaking water bath. The reactions were stopped by adding 100 µL of ice-cold methanol containing internal standards (^13C2,^15N-acetaminophen for acetaminophen and N-desethylamodiaquine; d9-1′-hydroxybufuralol for 4′-hydroxydiclofenac, 7-hydroxycoumarin, 4′-hydroxymephenytoin, 1′-hydroxybufuralol and 1′-hydroxy-midazolam). The incubation mixtures were centrifuged at 13,000× g for 4 min at 4 °C and 50 µL of each supernatant was diluted in 50 µL of water. Aliquots (5 µL) of the diluted supernatants were analyzed using LC-MS/MS. All assays were performed in triplicate and the mean values were used in calculations. […] Each reaction was initiated by adding the seven-CYP probe substrate cocktail described above.
The time-dependent inhibitory effects of EAM-2201 on CYP2C8, CYP2C9, CYP2C19 and CYP3A4 activities in ultrapooled human liver microsomes were evaluated using time- and concentration-dependent inhibition assays. Ultrapooled human liver microsomes (26.0 pmol CYP) were pre-incubated with various concentrations of EAM-2201 in DMSO (0.5% DMSO) in 50 mM potassium phosphate buffer (pH 7.4) in the presence of NADPH for predetermined time periods: 5–15 min for CYP2C8 activity, 5–20 min for CYP2C9 activity and 15–40 min for CYP2C19 and CYP3A4 activities. […] Aliquots (5 µL) of the diluted supernatants were analyzed using LC-MS/MS.
The metabolites formed from CYP substrates were simultaneously quantified using our previously described LC-MS/MS method. […]

CCc1ccc(C(=O)c2cn(CCCCCF)c3ccccc23)c2ccccc12 [EAM-2201, (4-ethyl-1-naphthalenyl)[1-(5-fluoropentyl)-1H-indol-3-yl]-methanone]
IC50: 3 µM
inactivation efficiency (kinact/Ki), CYP2C8 (human liver microsomes): 1953 M⁻¹ s⁻¹
kinact (human, ultrapooled human liver microsomes, pH 7.4, probe amodiaquine (2 µM), N-deethylation, read-out: kinact, time-dependent inhibition of CYP2C8 amodiaquine N-deethylase (converted)): 0.00105 s⁻¹
inhibition of CYP2C8-catalyzed amodiaquine N-deethylation (up to 50 µM, without 30-min preincubation, human liver microsomes): negligibly inhibited

Reference: PMC6017357, “In Vitro Inhibitory Effects of Synthetic Cannabinoid EAM-2201 on Cytochrome P450 and UDP-Glucuronosyltransferase Enzyme Activities in Human Liver Microsomes” (Molecules : A Journal of Synthetic Chemistry and Natural …, 2018)
